These results are taken from article PMC5263248, “Blood Group Antigen Recognition via the Group A Streptococcal M Protein Mediates Host Colonization” (mBio, 2017).

The target in the assay is T1, M1 protein (Streptococcus pyogenes, UniProt Q99XV0).
T1 construct: gene emm1; captured on NTA chip
Put plainly: SPR, single-cycle, steady-state affinity. Type of assay: binding. To be noted: protein captured on NTA chip via His tag, PBS, 25 °C. Background: In SPR one partner is held on a chip, and binding of the other changes the refractive index at the surface.

T1 sequence (Q99XV0 entry or part of it): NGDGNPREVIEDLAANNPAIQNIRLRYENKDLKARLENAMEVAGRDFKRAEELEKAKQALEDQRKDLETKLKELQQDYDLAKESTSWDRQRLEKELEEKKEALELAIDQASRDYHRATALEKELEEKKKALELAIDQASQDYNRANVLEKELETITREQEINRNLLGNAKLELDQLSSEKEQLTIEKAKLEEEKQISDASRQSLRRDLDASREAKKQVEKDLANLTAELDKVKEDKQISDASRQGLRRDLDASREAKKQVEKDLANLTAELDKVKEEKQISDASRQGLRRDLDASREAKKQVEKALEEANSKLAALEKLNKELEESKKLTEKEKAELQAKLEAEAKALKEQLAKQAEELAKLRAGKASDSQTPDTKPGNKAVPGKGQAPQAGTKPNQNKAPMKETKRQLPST

As for `C[C@@H]1O[C@@H](O[C@H]2C(O)O[C@H](CO)[C@H](O)[C@@H]2O[C@H]2O[C@H](CO)[C@H](O)[C@H](O)[C@H]2O)[C@@H](O)[C@H](O)[C@@H]1O` (some centres unmarked) [blood group B trisaccharide, Galα1-3(Fucα1-2)Gal], the equilibrium dissociation constant (Kd) (in general, a measure of binding affinity in units of concentration) was determined as 518 ± 51.3 nM. The same measure for `CC(=O)N[C@H]1[C@@H](O[C@H]2[C@@H](O)[C@@H](CO)OC(O)[C@@H]2O[C@@H]2O[C@@H](C)[C@@H](O)[C@@H](O)[C@@H]2O)O[C@H](CO)[C@H](O)[C@@H]1O` (some centres unmarked) [7K, GalNAcα1-3(Fucα1-2)Gal]: 2500 ± 400 nM.
